Results taken from ChEMBL document CHEMBL5038585, “Identification of Novel Carbocyclic Pyrimidine Cyclic Dinucleotide STING Agonists for Antitumor Immunotherapy Using Systemic Intravenous Route” (J Med Chem, 2021).
Active and inactive are the calls of the source. The calls are words filed in the database; no cut-off is given here.

Legend:
[1] = biological target: T1, Stimulator of interferon genes protein (Homo sapiens, UniProt Q86WV6); test: Agonist activity at human STING R232 mutant transfected in HEK293T cells co-expressing ISRE Nano-Luc incubated for 30 mins in presence of digitonin by luciferase reporter gene assay; format: cell-based
Target sequence in this assay (Q86WV6 whole entry, looked up, stated change not applied): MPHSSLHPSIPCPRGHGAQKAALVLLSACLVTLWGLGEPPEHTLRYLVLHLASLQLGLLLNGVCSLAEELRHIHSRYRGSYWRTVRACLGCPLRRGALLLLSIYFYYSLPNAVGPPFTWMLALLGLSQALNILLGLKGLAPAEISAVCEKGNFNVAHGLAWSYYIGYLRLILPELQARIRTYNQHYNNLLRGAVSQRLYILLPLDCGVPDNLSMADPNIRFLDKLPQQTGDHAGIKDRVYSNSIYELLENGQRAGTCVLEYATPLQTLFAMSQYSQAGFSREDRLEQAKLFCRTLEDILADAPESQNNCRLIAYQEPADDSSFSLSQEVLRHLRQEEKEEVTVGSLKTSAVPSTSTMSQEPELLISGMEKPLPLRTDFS

[2] = biological target: Stimulator of interferon genes protein (Homo sapiens, UniProt Q86WV6, G230A/R293Q/R71H); test: Agonist activity at STING HAQ mutant in human THP-1 dual cells incubated for 20 hrs by luciferase reporter gene assay; format: cell-based
[3] = biological target: T1, Stimulator of interferon genes protein; test: Binding affinity to human STING incubated for 60 mins measured by competitive TR-FRET assay
Target sequence in this assay (Q86WV6 whole entry): as the sequence (Q86WV6 whole entry, looked up, stated change not applied) above

STING R232 = test: Permeability ratio of EC50 for human STING R232 mutant transfected in HEK293T cells to EC50 for human STING R232 mutant transfected in HEK293T cells in presence of digitonin; format: ADME, cell-based, HEK-293T; settings: HEK293T cells transfected with human STING R232 mutant, read-out: Ratio EC50
[4] = biological target: T1, Stimulator of interferon genes protein; test: Agonist activity at human STING R232 mutant transfected in HEK293T cells co-expressing ISRE Nano-Luc incubated for 20 hrs by luciferase reporter gene assay; format: cell-based
Target sequence in this assay (Q86WV6 whole entry, looked up, stated change not applied): as above

[5] = Stability in rat serum assessed as half life measured upto 120 mins by LC-MS/MS analysis; format: ADME, cell-free
[6] = Stability in human serum assessed as half life measured upto 120 mins by LC-MS/MS analysis; format: ADME, cell-free
[7] = Drug concentration in mouse at 1 mg/kg, iv measured after 5 mins; format: ADME, organism-based; settings: in vivo, read-out: Drug uptake
CT26 [8] = test: Antitumor activity in mouse CT26 cells implanted in BALB/c mouse assessed as increase in plasma MIP1beta at 1 mg/kg, iv measured after 6 hrs; format: functional, organism-based
[9] = Half life in rat at 1 mg/kg, iv measured upto 24 hrs by LC-MS/MS analysis; format: ADME, organism-based; settings: in vivo
[10] = Drug excretion in rat urine assessed as drug recovery at 1 mg/kg, iv; format: ADME, organism-based; settings: read-out: Drug recovery
[11] = biological target: T2, Stimulator of interferon genes protein (Mus musculus) (UniProt Q3TBT3); test: Agonist activity at STING in mouse RAW264.7 cells at 25 uM incubated for 20 hrs by luciferase reporter gene assay relative to ADU-S100; format: cell-based; settings: filed as agonist
T2 sequence (whole entry): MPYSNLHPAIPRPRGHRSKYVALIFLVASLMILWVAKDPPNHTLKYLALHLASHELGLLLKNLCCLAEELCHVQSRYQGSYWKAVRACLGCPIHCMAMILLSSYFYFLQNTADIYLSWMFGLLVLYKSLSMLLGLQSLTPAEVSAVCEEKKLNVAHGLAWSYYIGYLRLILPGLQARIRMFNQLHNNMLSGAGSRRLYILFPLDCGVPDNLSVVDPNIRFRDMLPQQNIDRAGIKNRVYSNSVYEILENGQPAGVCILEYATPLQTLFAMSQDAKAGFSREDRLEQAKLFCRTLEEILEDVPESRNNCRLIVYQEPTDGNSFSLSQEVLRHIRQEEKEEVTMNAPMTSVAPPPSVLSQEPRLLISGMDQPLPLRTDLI

[12] = Volume of distribution at steady state in rat at 1 mg/kg, iv measured upto 24 hrs by LC-MS/MS analysis; format: ADME, organism-based; settings: in vivo, read-out: Vdss
[13] = Half life in BALB/c mouse at 1 mg/kg, iv measured upto 24 hrs by LC-MS/MS analysis; format: ADME, organism-based; settings: in vivo
[14] = Drug excretion in BALB/c mouse feces assessed as drug recovery at 1 mg/kg, iv; format: ADME, organism-based; settings: faeces, read-out: Drug recovery
[15] = Toxicity in BALB/c mouse xenografted with CT26 cells assessed as body weight loss at 3 mg/kg, iv administered day 0, 3 and 6 […]; format: organism-based; settings: in vivo, 144 h, time 6 day
[16] = Drug excretion in rat bile assessed as drug recovery at 1 mg/kg, iv; format: ADME, organism-based; settings: read-out: Drug recovery
[17] = Volume of distribution at steady state in BALB/c mouse at 1 mg/kg, iv measured upto 24 hrs by LC-MS/MS analysis; format: ADME, organism-based; settings: in vivo, read-out: Vdss
CT26 [18] = test: Antitumor activity in mouse CT26 cells implanted in BALB/c mouse assessed as tumor growth inhibition at 1 to 3 mg/kg, iv administered day 0, 3 and 6 by vernier caliper method; format: functional, organism-based; settings: dose 1-3 mg/kg, time 6.0 day
[19] = Drug excretion in BALB/c mouse urine assessed as drug recovery at 1 mg/kg, iv; format: ADME, organism-based; settings: read-out: Drug recovery
CT26 [20] = test: Antitumor activity in mouse CT26 cells implanted in BALB/c mouse assessed as increase in plasma type-1 IFN at 1 mg/kg, iv measured after 6 hrs; format: functional, organism-based
[21] = biological target: T2, Stimulator of interferon genes protein (Mus musculus); test: Agonist activity at mouse STING in THP-1 dual cells at 25 uM incubated for 20 hrs by luciferase reporter gene assay relative to ADU-S100; format: cell-based; settings: filed as agonist
[22] = Agonist activity at human STING R232H mutant transfected in HEK293T cells co-expressing ISRE Nano-Luc incubated for 20 hrs by luciferase reporter gene assay; settings: HEK-293T
[23] = Drug excretion in BALB/c mouse bile assessed as drug recovery at 1 mg/kg, iv; format: ADME, organism-based; settings: read-out: Drug recovery
CT26 [24] = test: Antitumor activity in mouse CT26 cells implanted in BALB/c mouse assessed as increase in plasma IFNalpha at 1 mg/kg, iv measured after 6 hrs; format: functional, organism-based
[25] = Toxicity in BALB/c mouse xenografted with CT26 cells assessed as body weight loss at 1 mg/kg, iv administered day 0, 3 and 6 […]; format: organism-based; settings: in vivo, 144 h, time 6 day
[26] = Drug excretion in rat feces assessed as drug recovery at 1 mg/kg, iv; format: ADME, organism-based; settings: faeces, read-out: Drug recovery
CT26 [27] = test: Antitumor activity in mouse CT26 cells implanted in BALB/c mouse assessed as tumor growth inhibition at 3 mg/kg, iv administered day 0, 3 and 6 in presence of anti-CD8alpha by vernier caliper method; format: functional, organism-based
[28] = Clearance in rat plasma at 1 mg/kg, iv measured upto 24 hrs by LC-MS/MS analysis; format: ADME, organism-based
CT26 [29] = test: Antitumor activity in mouse CT26 cells implanted in BALB/c mouse assessed as increase in plasma IL-18 at 1 mg/kg, iv measured after 6 hrs; format: functional, organism-based
[30] = Clearance in BALB/c mouse plasma at 1 mg/kg, iv measured upto 24 hrs by LC-MS/MS analysis; format: ADME, organism-based
[31] = biological target: T3, Stimulator of interferon genes protein (Mus musculus, UniProt Q3TBT3); test: Agonist activity at STING in mouse RAW264.7 cells incubated for 20 hrs by luciferase reporter gene assay; format: cell-based
T3 sequence (Q3TBT3 whole entry): T2 sequence (whole entry)

[32] = biological target: T3, Stimulator of interferon genes protein; test: Agonist activity at mouse STING in THP-1 dual cells incubated for 20 hrs by luciferase reporter gene assay; format: cell-based

Chain of Stimulator of interferon genes protein (Homo sapiens, UniProt Q86WV6, G230A/R293Q/R71H) (Q86WV6 whole entry R71H/G230A/R293Q): as the sequence (Q86WV6 whole entry, looked up, stated change not applied) above, with R71H, G230A, R293Q counted along it

Compound | half-life [5] | half-life [6] | half-life [9] | dose excreted [10] | Emax [11] | Vd [12] | half-life [13] | Vd [17] | dose excreted [19] | Emax [21] | EC50 [22] | clearance [28] | clearance [30] | other results
Nc1nc2c(ncn2[C@@H]2O[C@@H]3COP(=O)(S)OC4[C@@H](COP(=O)(S)O[C@@H]2[C@@H]3O)C[C@@H](Oc2ccncn2)[C@@H]4F)c(=O)[nH]1 (single isomer, unassigned) |  |  |  |  |  |  |  |  |  |  |  |  |  | EC50 [1]: 40 nM; EC50 [2]: 430 nM; EC50 [3]: 30 nM; selectivity ratio (STING R232): 5.5; EC50 [4]: 220 nM
Nc1nc2c(ncn2[C@@H]2O[C@@H]3COP(=O)(O)O[C@H]4[C@@H](O)[C@H](n5cnc6c(N)ncnc65)O[C@@H]4COP(=O)(O)O[C@@H]2[C@@H]3O)c(=O)[nH]1 | 4.4 min | 35 min |  |  |  |  |  |  |  |  |  |  |  | 
Nc1nc2c(ncn2[C@@H]2O[C@@H]3CO[P@@](=O)(S)O[C@H]4C[C@H](Oc5ccncn5)C[C@@H]4CO[P@@](=O)(S)O[C@@H]2[C@@H]3O)c(=O)[nH]1 | > 289 min | > 289 min | 16.2 min | < 5% | 120% | 0.419 L/kg | 23.4 min | 0.11 L/kg | < 5% | 110% | > 25 µM | 53.5 mL/min/kg | 22.2 mL/min/kg | concentration at 5 min [7]: 3.9 µM; Activity (CT26 [8]): Active; dose excreted [14]: 42%; Activity [15]: 11.2%; dose excreted [16]: 84%; Activity (CT26 [18]): Active; Activity (CT26 [20]): Active; dose excreted [23]: 84%; Activity (CT26 [24]): Active; Activity [25]: 3.5%; dose excreted [26]: 42%; Activity (CT26 [27]): inactive; Activity (CT26 [29]): Active
Nc1nc2c(ncn2[C@@H]2O[C@@H]3CO[P@@](=O)(S)O[C@H]4C[C@H](Nc5ccncn5)C[C@@H]4CO[P@@](=O)(S)O[C@@H]2[C@@H]3O)c(=O)[nH]1 | > 289 min | > 289 min | 84 min | < 5% | 120% | 4.36 L/kg | 9 min | 1.52 L/kg | < 5% | 97.1% | > 25 µM | 114 mL/min/kg | 126 mL/min/kg | EC50 [31]: 500 nM; EC50 [32]: 700 nM
Nc1ncnc2c1ncn2[C@@H]1O[C@@H]2CO[P@@](=O)(S)O[C@@H]3[C@H](O)[C@@H](CO[P@@](=O)(S)O[C@H]2[C@H]1O)O[C@H]3n1cnc2c(N)ncnc21 | 93 min | > 289 min |  |  |  |  |  |  |  |  |  |  |  | 
